Measured values from patent US5041567A, “Antibacterial monic acid derivatives” (Beecham Group plc, priority 1982, dated 1991).
≈ marks a conversion by molar mass, not a printed value. Like-named read-outs stand apart in the source and are kept apart here.

Legend:
[1] = test system: M. suipneumoniae J2206/183^b; test: MIC against mycoplasma in vitro; type: cell-based; conditions: Mesomycoplasma hyopneumoniae, 144 h
Strep. agalactiae 2788-B = test: MIC against human bacteria in vitro; type: cell-based; conditions: Streptococcus agalactiae; Strep. agalactiae 2788-B; 5% chocolated horse blood agar, 18 hours; read-out: MIC
P. mirabilis 889 = test: MIC against human bacteria in vitro; type: cell-based; conditions: Proteus mirabilis; P. mirabilis 889; 5% chocolated horse blood agar, 18 hours; read-out: MIC
[2] = test system: Staph. aureus B4 (pen. resistant); test: MIC against veterinary bacteria in vitro; conditions: Staphylococcus aureus, 18 h
Experimental: (§1) The activity of the compounds of the Examples against various veterinarily important bacteria, was assayed in vitro using two-fold serial dilutions in Diagnostic Sensitivity Test Agar inoculated with 10^4 organisms.

E. coli ESS = test: MIC against human bacteria in vitro; type: cell-based; conditions: Escherichia coli; E. coli ESS; 5% chocolated horse blood agar, 18 hours; read-out: MIC
[3] = test system: Corynebacterium pyogenes CY1; test: MIC against veterinary bacteria in vitro; conditions: CY1, 18 h
Experimental: as §1

[4] = test system: Corynebacterium xerosis 9755; test: MIC against human bacteria in vitro; type: cell-based; conditions: Corynebacterium xerosis 9755; 5% chocolated horse blood agar, 18 hours; read-out: MIC
Staph. aureus W2827 = test: MIC against human bacteria in vitro; type: cell-based; conditions: Staphylococcus aureus; Staph. aureus W2827; 5% chocolated horse blood agar, 18 hours; read-out: MIC
Past. multocida PA1 = test: MIC against veterinary bacteria in vitro; conditions: Pasteurella multocida, PA1, 18 h
Experimental: as §1

M. suipneumoniae TAM 6N = test: MIC against mycoplasma in vitro; type: cell-based; conditions: Mesomycoplasma hyopneumoniae, TAM6N, 144 h
Staph. aureus Oxford = test: MIC against human bacteria in vitro; type: cell-based; conditions: Staphylococcus aureus; Staph. aureus Oxford; 5% chocolated horse blood agar, 18 hours; read-out: MIC
Strep. uberis SPU1 = test: MIC against veterinary bacteria in vitro; conditions: Streptococcus uberis, SPU1, 18 h
Experimental: as §1

[5] = test system: Haemophilus influenzae Wy21; test: MIC against human bacteria in vitro; type: cell-based; conditions: Haemophilus influenzae Wy21; 5% chocolated horse blood agar, 18 hours; read-out: MIC
M. suipneumoniae NB12 = test: MIC against mycoplasma in vitro; type: cell-based; conditions: Mesomycoplasma hyopneumoniae, NB12, 144 h
M. suipneumoniae Str. 11 = test: MIC against mycoplasma in vitro; type: cell-based; conditions: Mesomycoplasma hyopneumoniae, STR.11, 144 h
[6] = test system: M. suipneumoniae ATCC 25095; test: MIC against mycoplasma in vitro; type: cell-based; conditions: Mesomycoplasma hyopneumoniae, ATCC25095, 144 h
[7] = test system: Pasteurella multocida 1633; test: MIC against human bacteria in vitro; type: cell-based; conditions: Pasteurella multocida 1633; 5% chocolated horse blood agar, 18 hours; read-out: MIC
K. aerogenes A = test: MIC against human bacteria in vitro; type: cell-based; conditions: Klebsiella aerogenes; K. aerogenes A; 5% chocolated horse blood agar, 18 hours; read-out: MIC
Strep. faecalis I = test: MIC against human bacteria in vitro; type: cell-based; conditions: Enterococcus faecalis; Strep. faecalis I; 5% chocolated horse blood agar, 18 hours; read-out: MIC
Staph. aureus Russell = test: MIC against human bacteria in vitro; type: cell-based; conditions: Staphylococcus aureus; Staph. aureus Russell; 5% chocolated horse blood agar, 18 hours; read-out: MIC
Strep. agalactiae SPA1 = test: MIC against veterinary bacteria in vitro; conditions: Streptococcus agalactiae, SPA1, 18 h
Experimental: as §1

Strep. spp. 64/848-C = test: MIC against human bacteria in vitro; type: cell-based; conditions: Strep. spp. 64/848-C; 5% chocolated horse blood agar, 18 hours; read-out: MIC
[8] = test system: Neisseria catarrhalis 1502; test: MIC against human bacteria in vitro; type: cell-based; conditions: Neisseria catarrhalis 1502; 5% chocolated horse blood agar, 18 hours; read-out: MIC
[9] = test system: M. bovigenitalium ATCC 14173; test: MIC against mycoplasma in vitro; type: cell-based; conditions: 144 h
[10] = test system: Ps. aeruginosa NCTC 10662; test: MIC against human bacteria in vitro; type: cell-based; conditions: Pseudomonas aeruginosa, NCTC10662; Ps. aeruginosa NCTC 10662; 5% chocolated horse blood agar, 18 hours; read-out: MIC
S. dublin S7 = test: MIC against veterinary bacteria in vitro; conditions: Salmonella enterica, S7, 18 h
Experimental: as §1

M. suipneumoniae JF 435 = test: MIC against mycoplasma in vitro; type: cell-based; conditions: Mesomycoplasma hyopneumoniae, JF435, 144 h
[11] = test system: Strep. pyogenes R80/421-A; test: MIC against human bacteria in vitro; type: cell-based; conditions: Streptococcus pyogenes; Strep. pyogenes R80/421-A; 5% chocolated horse blood agar, 18 hours; read-out: MIC
[12] = test system: M. hyosynoviae ATCC 25591; test: MIC against mycoplasma in vitro; type: cell-based; conditions: 144 h; M. hyosynoviae ATCC 25591; 6 days, 37° C.; read-out: MIC
Bacillus subtilis 6633 = test: MIC against human bacteria in vitro; type: cell-based; conditions: Bacillus subtilis 6633; 5% chocolated horse blood agar, 18 hours; read-out: MIC
M. dispar NCTC 10125 = test: MIC against mycoplasma in vitro; type: cell-based; conditions: 144 h
[13] = test system: Strep. suis (group D) SPS11; test: MIC against veterinary bacteria in vitro; conditions: Streptococcus suis, 18 h
Experimental: as §1

M. hyorhinis ATCC 25021 = test: MIC against mycoplasma in vitro; type: cell-based; conditions: Mesomycoplasma hyorhinis, ATCC25021, 144 h
M. suipneumoniae MS 16 = test: MIC against mycoplasma in vitro; type: cell-based; conditions: Mesomycoplasma hyopneumoniae, MS16, 144 h

Compound: C/C(=C\c1ncc(-c2ccc(C(=O)O)cc2)o1)C[C@@H]1OC[C@H](C[C@@H]2O[C@H]2[C@@H](C)[C@H](C)O)[C@@H](O)[C@H]1O [Example 17, Sodium 4-[2-(1-normon-2-yl)-5-oxazolyl] benzoate A]
- MIC ([1]; M. suipneumoniae J2206/183^b, 6 days, 37° C., read-out: MIC): 5 µg/mL
- MIC (Strep. agalactiae 2788-B): 32 µg/mL
- MIC (P. mirabilis 889): > 64 µg/mL
- MIC [2]: 10 µg/mL
- MIC (E. coli ESS): 16 µg/mL
- MIC [3]: > 80 µg/mL
- MIC [4]: > 64 µg/mL
- MIC (Staph. aureus W2827): > 64 µg/mL
- MIC (Past. multocida PA1): 10 µg/mL
- MIC (M. suipneumoniae TAM 6N; M. suipneumoniae TAM 6N, 6 days, 37° C., read-out: MIC): 10 µg/mL
- MIC (Staph. aureus Oxford): 32 µg/mL
- MIC (Strep. uberis SPU1): 1.25 µg/mL
- MIC [5]: 2 µg/mL
- MIC (M. suipneumoniae NB12): 2.5 µg/mL
- MIC (M. suipneumoniae Str. 11): 2.5 µg/mL
- MIC ([6]; M. suipneumoniae ATCC 25095, 6 days, 37° C., read-out: MIC): 5 µg/mL
- MIC [7]: 8 µg/mL
- MIC (K. aerogenes A): > 64 µg/mL
- MIC (Strep. faecalis I): > 64 µg/mL
- MIC (Staph. aureus Russell): > 64 µg/mL
- MIC (Strep. agalactiae SPA1): 40 µg/mL
- MIC (Strep. spp. 64/848-C): 32 µg/mL
- MIC [8]: 8 µg/mL
- MIC ([9]; M. bovigenitalium ATCC 14173, 6 days, 37° C., read-out: MIC): 5 µg/mL
- MIC [10]: > 64 µg/mL
- MIC (S. dublin S7): > 80 µg/mL
- MIC (M. suipneumoniae JF 435; M. suipneumoniae JF 435, 6 days, 37° C., read-out: MIC): 5 µg/mL
- MIC [11]: 4 µg/mL
- MIC [12]: > 10 µg/mL
- MIC (Bacillus subtilis 6633): 32 µg/mL
- MIC (M. dispar NCTC 10125): 2.5 µg/mL
- MIC [13]: 40 µg/mL
- MIC (M. hyorhinis ATCC 25021; M. hyorhinis ATCC 25021, 6 days, 37° C., read-out: MIC): 5 µg/mL
- MIC (M. suipneumoniae MS 16): 2.5 µg/mL

Compound: C/C(=C\c1cc(-c2ccccc2)on1)C[C@@H]1OC[C@H](C[C@@H]2O[C@H]2[C@@H](C)[C@H](C)O)[C@@H](O)[C@H]1O [Example 34, 3-(1-Normon-2-yl)-5-phenylisoxazole A]
- MIC [1]: 2.5 µg/mL (≈ 5.64 µM)
- MIC (Strep. agalactiae 2788-B): 64 µg/mL (≈ 144 µM)
- MIC (P. mirabilis 889): > 128 µg/mL
- MIC [2]: 2.5 µg/mL (≈ 5.64 µM)
- MIC (E. coli ESS): 16 µg/mL (≈ 36.1 µM)
- MIC [3]: > 80 µg/mL
- MIC [4]: > 128 µg/mL
- MIC (Staph. aureus W2827): 16 µg/mL (≈ 36.1 µM)
- MIC (M. suipneumoniae TAM 6N): 2.5 µg/mL (≈ 5.64 µM)
- MIC (Staph. aureus Oxford): 8 µg/mL (≈ 18 µM)
- MIC (Strep. uberis SPU1): 5 µg/mL (≈ 11.3 µM)
- MIC [5]: 2 µg/mL (≈ 4.51 µM)
- MIC (M. suipneumoniae NB12): 2.5 µg/mL (≈ 5.64 µM)
- MIC (M. suipneumoniae Str. 11): 1 µg/mL (≈ 2.25 µM)
- MIC [6]: 1 µg/mL (≈ 2.25 µM)
- MIC [7]: 64 µg/mL (≈ 144 µM)
- MIC (K. aerogenes A): > 128 µg/mL
- MIC (Strep. faecalis I): > 128 µg/mL
- MIC (Staph. aureus Russell): 16 µg/mL (≈ 36.1 µM)
- MIC (Strep. agalactiae SPA1): 40 µg/mL (≈ 90.2 µM)
- MIC (Strep. spp. 64/848-C): 64 µg/mL (≈ 144 µM)
- MIC [8]: 4 µg/mL (≈ 9.02 µM)
- MIC [9]: 1 µg/mL (≈ 2.25 µM)
- MIC [10]: > 128 µg/mL
- MIC (S. dublin S7): > 80 µg/mL
- MIC (M. suipneumoniae JF 435): 2.5 µg/mL (≈ 5.64 µM)
- MIC [11]: 8 µg/mL (≈ 18 µM)
- MIC [12]: 5 µg/mL (≈ 11.3 µM)
- MIC (Bacillus subtilis 6633): 4 µg/mL (≈ 9.02 µM)
- MIC (M. dispar NCTC 10125; M. dispar NCTC 10125, 6 days, 37° C., read-out: MIC): 0.5 µg/mL (≈ 1.13 µM)
- MIC [13]: 80 µg/mL (≈ 180 µM)
- MIC (M. hyorhinis ATCC 25021): 1 µg/mL (≈ 2.25 µM)
- MIC (M. suipneumoniae MS 16): 1 µg/mL (≈ 2.25 µM)
